Reference: patent US20150139961A1, “Reprogramming Blood Cells to Pluripotent and Multipotent Stem Cells” (The Johns Hopkins University, priority 2009, published 2015)

Experiments:
CB MNCs = assay: Reprogramming of cultured cord blood mononuclear cells by EBNA1/OriP plasmids; type: cell-based, human; conditions: added to pEB-C5
Method: After thawing, frozen MNCs from CB and PB) were cultured in the SFM supplemented with the following cytokines and a hormone: SCF (50 ng/ml), IL-3 (10 ng/ml), EPO (2U/ml, R&D Systems), IGF-1 (40 ng/ml) and dexamethasone (1 uM, Sigma). The media were replenished at day 3 and 6. By day 8-9 when an overt sign of cell division was observed, cells were harvested for nucleofection as well for various analyses. Approximately 3.5-fold cells were obtained for CB at day 8 and 1.5-fold for PB MNC at day 9. After optimizing nucleofection of the cultured MNCs to achieve maximal cell survival and gene transfer, the inventor settled down with the same Human CD34 Cell solution [Nucleofector Kit VPA-1003] but with 2×10^6 cultured cells. The transfected MNCs were cultured in the same medium for days and then further reprogrammed on MEF feeder cells as described above with cultured CD34+ cells. […]
TRA-1-60 Live Staining for identifying fully reprogrammed clones: TRA-1-60 antibody (mouse IgM, used as 1:300 of MAB4360, Millipore) and Alexa555-conjugated anti-mouse IgM secondary antibody (1:500, Invitrogen) were diluted in ESC medium and added into reprogramming cell culture plates. […] TRA-1-60 positive colonies were identified under an inverted fluorescence microscope, and can be picked up within 1 day after staining for further expansion and characterization.

CB CD34+ cells = assay: Reprogramming of cord blood CD34+ cells by EBNA1/OriP plasmids, TRA-1-60+ colonies at day 14; type: cell-based, human; conditions: NaB 0.25 mM, with either vector combination
Method: In the first set of 3 experiments, the pEB-C5 and pEB-Tg plasmids were used in comparison with the Thomson/Yu combination #6 containing 3 plasmids. After expansion (˜5-flod) with cytokines for 4 days, CB CD34+ cells were transfected once and then cultured following the standard protocol of deriving human iPSCs. […] Transfected cells were cultured for 2 more days before transferring onto 6 wells coated with MEF feeder cells. At day 3, the ESC culture medium was used in the presence or absence of NaB (0.25 mM) or VPA (0.5 mM). After day 9, the MEF-derived conditioned medium (CM) was used to substitute plain ESC medium. […] At day 14, cultures can be stained live with the TRA-1-60 antibody. TRA-1-60+ colonies with ESC-like morphology were picked after counting all the colonies.
After thawing, CD34+ cells were cultured for 4 to 5 days under a serum-free medium (SFM): containing 50% IMDM with 50% Ham's F12 (Invitrogen), ITS supplement (insulin-transferrin-selenium and 5 mg/ml BSA), synthetic lipids, 50 ug/ml of ascorbic acid and 2 mM glutamine (all from Sigma). […]
The cell culture plates with sizable ESC-like colonies were incubated in 37° C. for 1 hour before medium was changed to fresh ESC medium or CM. TRA-1-60 positive colonies were identified under an inverted fluorescence microscope, and can be picked up within 1 day after staining for further expansion and characterization.

CCCC(=O)[O-].[Na+] [NaB, Sodium butyrate]
stimulatory effect on reprogramming (CB MNCs): minimal
effect on number (and percentages) of TRA-1-60+ colonies (CB CD34+ cells): consistently enhance
